Measured values taken from patent US10273221B2, “Microbiocidal heterobicyclic derivatives” (Syngenta Participations AG, priority 2015, dated 2019).

Legend:
[1] = test system: Botryotinia fuckeliana (Botrytis cinerea); experiment: Botryotinia fuckeliana (Botrytis cinerea) / liquid culture (gray mould); format: cell-based; details: growth inhibition determined photometrically 3-4 days after application, vs untreated control, read-out: disease control
[2] = test system: Glomerella lagenarium (Colletotrichum lagenarium); experiment: Glomerella lagenarium (Colletotrichum lagenarium) / liquid culture (anthracnose); format: cell-based; details: Colletotrichum orbiculare, growth inhibition measured photometrically 3-4 days after application, vs untreated control, read-out: disease control
[3] = test system: Monographella nivalis (Microdochium nivale); experiment: Monographella nivalis (Microdochium nivale) / liquid culture (foot rot cereals); format: cell-based; details: 96 h, growth inhibition determined photometrically 4-5 days after application, vs untreated control, read-out: disease control
[4] = test system: Magnaporthe grisea (Pyricularia oryzae); experiment: microbe, parasite or virus in culture; format: cell-based; details: 72 h, read-out: control of Magnaporthe grisea
Sclerotinia sclerotiorum = Sclerotinia sclerotiorum / liquid culture (cottony rot); details: 72 h, read-out: control of Sclerotinia sclerotiorum
Method: Sclerotinia sclerotiorum/Liquid Culture (Cottony Rot)
Mycelia fragments of a newly grown liquid culture of the fungus are directly mixed into nutrient broth (Vogels broth). After placing a (DMSO) solution of test compound into a microtiter plate (96-well format) the nutrient broth containing the fungal material is added. The test plates are incubated at 24° C. and the inhibition of growth is determined photometrically 3-4 days after application.

Fusarium culmorum = experiment: microbe, parasite or virus in culture; format: cell-based; details: 72 h, read-out: disease control
Gaeumannomyces graminis = Gaeumannomyces graminis / liquid culture (take-all of cereals); format: cell-based; details: growth inhibition determined photometrically 4-5 days after application, vs untreated control, read-out: disease control
Pyrenophora teres = Pyrenophora teres / liquid culture (net blotch); format: cell-based; details: growth inhibition determined photometrically 3-4 days after application, vs untreated control

| SMILES | inhibition of growth at 200 ppm [1] [%] | inhibition of growth at 200 ppm [2] [%] | inhibition of growth at 200 ppm [3] [%] | inhibition of growth at 20 ppm [4] [%] | melting point [°C] | inhibition of growth at 20 ppm (Sclerotinia sclerotiorum) [%] | inhibition of growth at 200 ppm (Fusarium culmorum) [%] | inhibition of growth at 200 ppm (Gaeumannomyces graminis) [%] | inhibition of growth at 20 ppm (Pyrenophora teres) [%] |
| --- | --- | --- | --- | --- | --- | --- | --- | --- | --- |
| CC1(C)N=C(n2cnc3cc(Cl)c(Cl)cc32)c2cccc(F)c2C1(C)C [E-39] | ≥ 80 | ≥ 80 | ≥ 80 | ≥ 80 | 126 to 127 | ≥ 80 | – | – | – |
| Cc1ccc2c(ncn2C2=NC3(CC3)C3(CC3)c3ccccc32)c1C [E-58] | ≥ 80 | ≥ 80 | ≥ 80 | ≥ 80 | 141 to 143 | ≥ 80 | ≥ 80 | ≥ 80 | – |
| CC1(C)N=C(n2cnc3ccccc32)c2ccccc2C12CC2 [E-3, 1′-(benzimidazol-1-yl)-3′,3′-dimethyl-spiro(cyclopropane-1,4′-isoquinoline)] | ≥ 80 | ≥ 80 | – | – | – | – | – | ≥ 80 | – |
| CC1(C)N=C(n2cnc3c(C4CC4)cccc32)c2cccc(F)c2C1(C)C [E-8] | ≥ 80 | ≥ 80 | ≥ 80 | ≥ 80 | – | – | – | ≥ 80 | – |
| COC(=O)c1cccc2c1ncn2C1=NC(C)(C)C(C)(C)c2c(F)cccc21 [E-24] | – | – | – | ≥ 80 | 178 to 179 | – | – | – | – |
| Cc1c(F)ccc2c1ncn2C1=NC(C)(C)C(F)(F)c2cc(Cl)ccc21 [E-48] | ≥ 80 | – | ≥ 80 | ≥ 80 | – | – | ≥ 80 | ≥ 80 | – |
| CC1(C)N=C(n2cnc3c(Cl)cccc32)c2ccc(Cl)cc2C1(F)F [E-37] | ≥ 80 | – | ≥ 80 | ≥ 80 | 197 to 200 | ≥ 80 | – | ≥ 80 | – |
| Cc1cccc2c1ncn2C1=NC(C)(C)Cc2c(Br)cccc21 [E-38] | ≥ 80 | ≥ 80 | ≥ 80 | ≥ 80 | 52 to 54 | ≥ 80 | – | – | – |
| Cc1c(Br)ccc2c1ncn2C1=NC(C)(C)C(C)(C)c2c(F)cccc21 [E-41] | ≥ 80 | ≥ 80 | ≥ 80 | ≥ 80 | 122 to 124 | ≥ 80 | ≥ 80 | ≥ 80 | – |
| CC(C)c1cccc2c1ncn2C1=NC(C)(C)C(C)(C)c2c(F)cccc21 [E-12] | ≥ 80 | ≥ 80 | ≥ 80 | ≥ 80 | 113 to 114 | – | – | – | ≥ 80 |
| Cc1ccc2c(ncn2C2=NC(C)(C)C(=O)c3ccccc32)c1C [E-25] | ≥ 80 | ≥ 80 | ≥ 80 | ≥ 80 | 159 to 161 | ≥ 80 | ≥ 80 | – | ≥ 80 |
| CC1(C)N=C(n2cnc3ccccc32)c2cccc(F)c2C1(C)C [E-2] | ≥ 80 | ≥ 80 | ≥ 80 | – | – | – | ≥ 80 | – | – |
| Cc1cccc2c1ncn2C1=NCC2(CCCCC2)c2ccccc21 [E-52] | ≥ 80 | – | – | ≥ 80 | – | – | – | – | – |
| C=Cc1cccc2c1ncn2C1=NC(C)(C)C(C)(C)c2c(F)cccc21 [E-13] | ≥ 80 | ≥ 80 | ≥ 80 | ≥ 80 | 70 to 71 | – | – | – | ≥ 80 |
| Cc1cccc2c1ncn2C1=NC(C)(C)C(F)(F)c2cc(Cl)ccc21 [E-47] | ≥ 80 | – | ≥ 80 | ≥ 80 | – | – | ≥ 80 | ≥ 80 | – |
| Cc1cccc2c1ncn2C1=NC2(CCC2)Cc2ccccc21 [E-43] | ≥ 80 | ≥ 80 | ≥ 80 | ≥ 80 | 132 to 133 | ≥ 80 | – | – | – |
| Cc1ccc2c(ncn2C2=NC(C)(C)C(F)(F)c3cc(Cl)ccc32)c1C [E-49] | ≥ 80 | ≥ 80 | ≥ 80 | ≥ 80 | – | – | ≥ 80 | ≥ 80 | – |

| SMILES | inhibition of growth at 200 ppm [1] [%] | inhibition of growth at 200 ppm [2] [%] | inhibition of growth at 200 ppm [3] [%] | inhibition of growth at 20 ppm [4] [%] | melting point [°C] | inhibition of growth at 20 ppm (Sclerotinia sclerotiorum) [%] | inhibition of growth at 200 ppm (Fusarium culmorum) [%] | inhibition of growth at 200 ppm (Gaeumannomyces graminis) [%] | inhibition of growth at 20 ppm (Pyrenophora teres) [%] |
| --- | --- | --- | --- | --- | --- | --- | --- | --- | --- |
| CC1(C)N=C(n2cnc3c(C(F)(F)F)cccc32)c2cccc(F)c2C1(C)C [E-5] | ≥ 80 | ≥ 80 | ≥ 80 | ≥ 80 | – | – | – | – | ≥ 80 |
| Cc1cccc2c1ncn2C1=NC(C)(C)C(=O)c2ccccc21 [E-10] | ≥ 80 | ≥ 80 | ≥ 80 | ≥ 80 | 123 to 125 | – | – | – | ≥ 80 |
| Cc1c(Cl)ccc2c1ncn2C1=NC(C)(C)C(C)(C)c2c(F)cccc21 [E-42] | ≥ 80 | ≥ 80 | ≥ 80 | ≥ 80 | 102 to 103 | ≥ 80 | ≥ 80 | – | – |
| C=C(C)c1cccc2c1ncn2C1=NC(C)(C)C(C)(C)c2c(F)cccc21 [E-11] | ≥ 80 | ≥ 80 | ≥ 80 | ≥ 80 | – | – | – | – | ≥ 80 |
| COc1cccc2c1ncn2C1=NC(C)(C)C(C)(C)c2c(F)cccc21 [E-6] | ≥ 80 | ≥ 80 | ≥ 80 | ≥ 80 | – | – | – | – | ≥ 80 |
| Cc1cccc2c1ncn2C1=NC(C)(C)C(F)(F)c2ccccc21 | – | – | – | – | 142 to 149 | – | – | – | – |
| Cc1cccc2c1ncn2C1=NC(C)(C)Cc2c(Cl)cccc21 [E-40] | ≥ 80 | ≥ 80 | ≥ 80 | ≥ 80 | – | ≥ 80 | – | – | – |
| CC1(C)N=C(n2cnc3c4c(ccc32)CCC4)c2cccc(F)c2C1(C)C [E-51] | ≥ 80 | – | ≥ 80 | ≥ 80 | 177 to 178 | – | ≥ 80 | ≥ 80 | – |
| Cc1cccc2c1ncn2C1=NC2(CC2)Cc2ccccc21 [E-59] | ≥ 80 | ≥ 80 | ≥ 80 | ≥ 80 | – | – | ≥ 80 | ≥ 80 | – |
| Cc1cccc2c1ncn2C1=NC2(CC2)C2(CC2)c2ccccc21 [E-61] | ≥ 80 | ≥ 80 | ≥ 80 | ≥ 80 | – | ≥ 80 | ≥ 80 | ≥ 80 | – |
| Cc1cccc2c1ncn2C1=NC(C)(C)C(C)(C)c2c1ccc(Cl)c2F [E-45] | ≥ 80 | ≥ 80 | ≥ 80 | ≥ 80 | 147 to 151 | ≥ 80 | ≥ 80 | – | – |
| Cc1cccc2c1ncn2C1=NC(C)(C)C(F)(F)c2c(F)cccc21 [E-20] | ≥ 80 | ≥ 80 | ≥ 80 | ≥ 80 | – | ≥ 80 | ≥ 80 | – | ≥ 80 |
| Cc1cccc2c1ncn2C1=NC(C)(C)C(C)(C)c2c1ccc(F)c2F [E-46] | ≥ 80 | ≥ 80 | ≥ 80 | ≥ 80 | 122 to 125 | ≥ 80 | ≥ 80 | – | – |
| Cc1cccc2c1ncn2C1=NC(C)(C)C(C)(C)c2c(F)cccc21 [Example 1] | – | – | – | – | 118 to 120 | – | – | – | – |
| CC1(C)N=C(n2cnc3c(Cl)cccc32)c2ccccc2C1=O [E-29] | ≥ 80 | – | – | – | – | – | – | – | – |
| Cc1cccc2c1ncn2C1=NCC(C)(C)c2ccccc21 [E-44] | ≥ 80 | ≥ 80 | ≥ 80 | ≥ 80 | – | ≥ 80 | – | – | – |
| Cc1ccc2c(ncn2C2=NC(C)(C)C(F)(F)c3ccccc32)c1Cl [E-31] | ≥ 80 | ≥ 80 | ≥ 80 | ≥ 80 | – | ≥ 80 | ≥ 80 | ≥ 80 | – |
